Reference: PubChem BioAssay AID1919006 (Molecular Pharmacology Branch, DTP, NCI, 2023)

System: 885512-296-R-J2-PDC complex spheroid growth, % test/control
Assay: Anticancer human tumor 885512-296-R-J2-PDC patient-derived breast carcinoma cell line growth inhibition [AhR]
Conditions: for IC50: curve of first compound; for viability, T/C: stronger effect = lower value
Procedure, shortened: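 Spheroids combined tumor cells with HUVEC endothelial cells and human MSCs as stroma. AhR antagonists were paired with standard or investigational drugs, each dosed in half-log steps down from near clinical Cmax, or from 10 microM where Cmax was unknown.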

[1] = second compound 0.1 µM, first compound 0.0316 µM
[2] = second compound 0.1 µM, first compound 0.1 µM
[3] = second compound 0.1 µM, first compound 0.316 µM
[4] = second compound 0.1 µM, first compound 1 µM
[5] = second compound 0.1 µM, first compound 3.16 µM
[6] = second compound 0.1 µM, first compound 10 µM
[7] = second compound 0.316 µM, first compound 0.0316 µM
[8] = second compound 0.316 µM, first compound 0.1 µM
[9] = second compound 0.316 µM, first compound 0.316 µM
[10] = second compound 0.316 µM, first compound 1 µM
[11] = second compound 0.316 µM, first compound 3.16 µM
[12] = second compound 0.316 µM, first compound 10 µM
[13] = second compound 1 µM, first compound 0.0316 µM
[14] = second compound 1 µM, first compound 0.1 µM
[15] = second compound 1 µM, first compound 0.316 µM
[16] = second compound 1 µM, first compound 1 µM
[17] = second compound 1 µM, first compound 3.16 µM
[18] = second compound 1 µM, first compound 10 µM
[19] = second compound 3.16 µM, first compound 0.0316 µM
[20] = second compound 3.16 µM, first compound 0.1 µM
[21] = second compound 3.16 µM, first compound 0.316 µM
[22] = second compound 3.16 µM, first compound 1 µM
[23] = second compound 3.16 µM, first compound 3.16 µM
[24] = second compound 3.16 µM, first compound 10 µM
[25] = second compound 10 µM, first compound 0.0316 µM
[26] = second compound 10 µM, first compound 0.1 µM
[27] = second compound 10 µM, first compound 0.316 µM
[28] = second compound 10 µM, first compound 1 µM
[29] = second compound 10 µM, first compound 3.16 µM
[30] = second compound 10 µM, first compound 10 µM
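Note: spheroids exposed to compounds for seven days.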

CC1(C)CCC(CN2CCN(c3ccc(C(=O)NS(=O)(=O)c4ccc(NCC5CCOCC5)c([N+](=O)[O-])c4)c(Oc4cnc5[nH]ccc5c4)c3)CC2)=C(c2ccc(Cl)cc2)C1 + Cc1cncc(-c2nc(NCCc3c[nH]c4ccccc34)c3ncn(C(C)C)c3n2)c1
IC50 (second compound 0.1 µM): 5.31 µM
IC50 (second compound 0.316 µM): 5.22 µM
IC50 (second compound 1 µM): 3.86 µM
IC50 (second compound 3.16 µM): < 0.0316 µM
IC50 (second compound 10 µM): < 0.0316 µM
viability, T/C [1]: 108%
viability, T/C [2]: 120%
viability, T/C [3]: 100%
viability, T/C [4]: 97.9%
viability, T/C [5]: 73%
viability, T/C [6]: 21.9%
viability, T/C [7]: 95.8%
viability, T/C [8]: 98.3%
viability, T/C [9]: 97%
viability, T/C [10]: 100%
viability, T/C [11]: 68.4%
viability, T/C [12]: 26.2%
viability, T/C [13]: 87.5%
viability, T/C [14]: 84.5%
viability, T/C [15]: 77.8%
viability, T/C [16]: 71.8%
viability, T/C [17]: 57%
viability, T/C [18]: 23.2%
viability, T/C [19]: 42.2%
viability, T/C [20]: 49.5%
viability, T/C [21]: 50.7%
viability, T/C [22]: 41.4%
viability, T/C [23]: 39.7%
viability, T/C [24]: 29.8%
viability, T/C [25]: 12.7%
viability, T/C [26]: 13.7%
viability, T/C [27]: 14.3%
viability, T/C [28]: 12.4%
viability, T/C [29]: 13.8%
viability, T/C [30]: 10.1%

COc1cc(Nc2ncc3c(n2)-c2ccc(Cl)cc2C(c2c(F)cccc2OC)=NC3)ccc1C(=O)O + Cc1cncc(-c2nc(NCCc3c[nH]c4ccccc34)c3ncn(C(C)C)c3n2)c1
IC50 (second compound 0.1 µM): 0.0316 µM
IC50 (second compound 0.316 µM): 0.0483 µM
IC50 (second compound 1 µM): < 0.0316 µM
IC50 (second compound 3.16 µM): < 0.0316 µM
IC50 (second compound 10 µM): < 0.0316 µM
viability, T/C [1]: 49.5%
viability, T/C [2]: 46.1%
viability, T/C [3]: 47.6%
viability, T/C [4]: 50.6%
viability, T/C [5]: 30.2%
viability, T/C [6]: 32%
viability, T/C [7]: 53.3%
viability, T/C [8]: 43.6%
viability, T/C [9]: 48%
viability, T/C [10]: 42.4%
viability, T/C [11]: 45.8%
viability, T/C [12]: 34.2%
viability, T/C [13]: 44.5%
viability, T/C [14]: 37.8%
viability, T/C [15]: 46%
viability, T/C [16]: 41.7%
viability, T/C [17]: 39.7%
viability, T/C [18]: 39.5%
viability, T/C [19]: 32.6%
viability, T/C [20]: 35.6%
viability, T/C [21]: 33.6%
viability, T/C [22]: 34%
viability, T/C [23]: 32.2%
viability, T/C [24]: 31.2%
viability, T/C [25]: 16.2%
viability, T/C [26]: 12.8%
viability, T/C [27]: 13.3%
viability, T/C [28]: 14.8%
viability, T/C [29]: 17.2%
viability, T/C [30]: 17.6%

Cn1ncnc1C1c2n[nH]c(=O)c3cc(F)cc(c23)NC1c1ccc(F)cc1 (stereo not given) + Cc1cncc(-c2nc(NCCc3c[nH]c4ccccc34)c3ncn(C(C)C)c3n2)c1
IC50 (second compound 0.1 µM): > 0.1 µM
IC50 (second compound 0.316 µM): > 0.1 µM
IC50 (second compound 1 µM): > 0.1 µM
IC50 (second compound 3.16 µM): 0.0352 µM
IC50 (second compound 10 µM): < 0.000316 µM
viability, T/C (second compound 0.1 µM, first compound 0.000316 µM): 116%
viability, T/C (second compound 0.1 µM, first compound 0.001 µM): 112%
viability, T/C (second compound 0.1 µM, first compound 0.00316 µM): 99.8%
viability, T/C (second compound 0.1 µM, first compound 0.01 µM): 99.1%
viability, T/C [1]: 82.4%
viability, T/C [2]: 56.2%
viability, T/C (second compound 0.316 µM, first compound 0.000316 µM): 120%
viability, T/C (second compound 0.316 µM, first compound 0.001 µM): 108%
viability, T/C (second compound 0.316 µM, first compound 0.00316 µM): 105%
viability, T/C (second compound 0.316 µM, first compound 0.01 µM): 87.4%
viability, T/C [7]: 76%
viability, T/C [8]: 53.5%
viability, T/C (second compound 1 µM, first compound 0.000316 µM): 87.1%
viability, T/C (second compound 1 µM, first compound 0.001 µM): 99.5%
viability, T/C (second compound 1 µM, first compound 0.00316 µM): 79.4%
viability, T/C (second compound 1 µM, first compound 0.01 µM): 74.9%
viability, T/C [13]: 68.3%
viability, T/C [14]: 51.8%
viability, T/C (second compound 3.16 µM, first compound 0.000316 µM): 55.2%
viability, T/C (second compound 3.16 µM, first compound 0.001 µM): 58.4%
viability, T/C (second compound 3.16 µM, first compound 0.00316 µM): 54.6%
viability, T/C (second compound 3.16 µM, first compound 0.01 µM): 54.5%
viability, T/C [19]: 49.2%
viability, T/C [20]: 45.7%
viability, T/C (second compound 10 µM, first compound 0.000316 µM): 23.8%
viability, T/C (second compound 10 µM, first compound 0.001 µM): 21.6%
viability, T/C (second compound 10 µM, first compound 0.00316 µM): 21.3%
viability, T/C (second compound 10 µM, first compound 0.01 µM): 18.1%
viability, T/C [25]: 22.1%
viability, T/C [26]: 21.6%

NS(=O)(=O)OCC1CC(n2ccc3c(NC4CCc5ccccc54)ncnc32)CC1O (stereo not given) + Cc1cncc(-c2nc(NCCc3c[nH]c4ccccc34)c3ncn(C(C)C)c3n2)c1
IC50 (second compound 0.1 µM): 0.0904 µM
IC50 (second compound 0.316 µM): 0.0894 µM
IC50 (second compound 1 µM): 0.0774 µM
IC50 (second compound 3.16 µM): 0.0436 µM
IC50 (second compound 10 µM): < 0.0316 µM
viability, T/C [1]: 96.2%
viability, T/C [2]: 45.6%
viability, T/C [3]: 16.5%
viability, T/C [4]: 8.26%
viability, T/C [5]: 5.94%
viability, T/C [6]: 6.36%
viability, T/C [7]: 89.7%
viability, T/C [8]: 45.6%
viability, T/C [9]: 17.4%
viability, T/C [10]: 6.34%
viability, T/C [11]: 6.04%
viability, T/C [12]: 5.52%
viability, T/C [13]: 81.3%
viability, T/C [14]: 41%
viability, T/C [15]: 13.9%
viability, T/C [16]: 5.67%
viability, T/C [17]: 4.18%
viability, T/C [18]: 4.92%
viability, T/C [19]: 58.5%
viability, T/C [20]: 28%
viability, T/C [21]: 8.09%
viability, T/C [22]: 3.67%
viability, T/C [23]: 3.02%
viability, T/C [24]: 2.73%
viability, T/C [25]: 10.3%
viability, T/C [26]: 8.3%
viability, T/C [27]: 3.54%
viability, T/C [28]: 2.33%
viability, T/C [29]: 1.76%
viability, T/C [30]: 1.73%
